Measurements reported in patent US7410765B2, “System for protease mediated protein expression” (The Regents of the University of California, priority 2004, dated 2008).

System: caspase-3
Experiment: Caspase-3-dependent DsRed fluorescence in live transgenic zebrafish embryos injected with the UbG-DEVDsRx reporter construct
Type: in vivo
Description: As discussed in detail below, the invention was tested by making a construct where the degradation signal is a non-removable ubiquitin moiety (G76V zebrafish ubiquitin mutant) fused to the red fluorescent protein DsRed Express by a linker containing a caspase-3 cleavage site (amino acid sequence: DEVD; SEQ ID NO: 1). […] The DNA construct was microinjected in one-cell-stage zebrafish embryos to generate transgenic fish where apoptotic cells express the red fluorescent marker.
Specific labelling of apoptotic cells by UbG-DEVDsRx depends on a functional proteasomal degradation pathway because failure to degrade the UbG76V-tagged chimera would allow fluorescence to develop, even in the absence of caspase-3 activity.
Morpholino-modified oligonucleotides were injected in the yolk of one-cell-stage embryos. DNA constructs were linearized and injected in the cytoplasm of one-cell-stage embryos. For each experiment, 200-250 transgenics were generated. Upon reaching the desired age, 20-30 embryos with similar transgene expression levels and low-mosaicism were selected for TUNEL labelling, confocal microscopy, in vivo observations and cell counts.
Fixed and live embryos were embedded in 1.2% low-melt agarose on a glass slide and immersed in a drop of water to retain humidity.

expression of red fluorescence in embryo injected with the test construct (embryo incubated in the presence of Z-DEVD-FMK, 75 μM, FIG. 1e): does not express any fluorescence
fluorescence (UbG-DEVDsRx labelling) in living transgenic embryos (embryos exposed to the caspase-3 inhibitor, concentration not given): fluorescence is absent
SMILES: COC(=O)CC[C@H](NC(=O)[C@H](CC(=O)OC)NC(=O)OCc1ccccc1)C(=O)N[C@H](C(=O)N[C@@H](CC(=O)OC)C(=O)CF)C(C)C [Z-DEVD-FMK]
